# Experimental data published in publication PMC6354011 (Scientific Reports, 2019).
# “And” between values parts separate entries of the source, which are not always exact repeats. Equal values may be shown once. Read-outs that look alike come from different tables or passages of the source.
# Columns and labels:
# [1] = molecular target: T1, equine serum butyrylcholinesterase (BChE, EC 3.1.1.8) (Equus caballus, UniProt P81908); experiment: biochemical; type: biochemical; conditions: for BChE % inhibition: single read
# T1 construct: equine serum butyrylcholinesterase (BChE, EC 3.1.1.8); purchased Sigma-Aldrich (USA); host or cells: equine serum
# T1 sequence (P81908 whole entry): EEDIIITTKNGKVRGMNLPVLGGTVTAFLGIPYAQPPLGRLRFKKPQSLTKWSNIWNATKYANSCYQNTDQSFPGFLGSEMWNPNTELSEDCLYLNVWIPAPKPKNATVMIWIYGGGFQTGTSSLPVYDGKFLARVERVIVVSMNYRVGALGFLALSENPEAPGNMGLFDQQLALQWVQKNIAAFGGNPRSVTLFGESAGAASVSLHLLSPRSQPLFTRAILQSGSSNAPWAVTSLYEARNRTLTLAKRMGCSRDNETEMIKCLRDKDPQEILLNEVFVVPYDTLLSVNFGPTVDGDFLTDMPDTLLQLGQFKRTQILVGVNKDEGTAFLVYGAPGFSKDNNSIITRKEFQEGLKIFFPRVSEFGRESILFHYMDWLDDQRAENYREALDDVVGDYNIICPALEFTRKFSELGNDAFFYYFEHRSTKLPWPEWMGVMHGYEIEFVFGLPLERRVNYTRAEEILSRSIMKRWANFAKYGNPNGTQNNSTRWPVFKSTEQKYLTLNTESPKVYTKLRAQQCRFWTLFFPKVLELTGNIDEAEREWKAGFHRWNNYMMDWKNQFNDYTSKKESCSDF
# Excerpt: (§1) Ellman’s colorimetric method with minor modification was employed in the determination of AChE and BChE inhibitory activities. Electric eel acetylcholinesterase (AChE, EC 3.1.1.7), equine serum butyrylcholinesterase (BChE, EC 3.1.1.8), 5,5′-Dithiobis(2-nitrobenzoic acid) (DTNB) and sodium phosphate dibasic (Na2HPO4) were purchased from Sigma-Aldrich (USA). S-butyrylthiocholine chloride (BTCC) from Sigma-Aldrich (Switzerland), acetylthiocholine iodide (ATCI) from Sigma-Aldrich (United Kingdom) and sodium phosphate monobasic (NaH2PO4) from Sigma-Aldrich (Germany) were purchased. […] Ethanol was used to replace the sample as a control in this assay.
# [2] = molecular target: T2, Electric eel acetylcholinesterase (AChE, EC 3.1.1.7) (Electrophorus electricus, UniProt O42275); experiment: biochemical
# T2 construct: purchased Sigma-Aldrich (USA)
# T2 sequence (O42275 24-633): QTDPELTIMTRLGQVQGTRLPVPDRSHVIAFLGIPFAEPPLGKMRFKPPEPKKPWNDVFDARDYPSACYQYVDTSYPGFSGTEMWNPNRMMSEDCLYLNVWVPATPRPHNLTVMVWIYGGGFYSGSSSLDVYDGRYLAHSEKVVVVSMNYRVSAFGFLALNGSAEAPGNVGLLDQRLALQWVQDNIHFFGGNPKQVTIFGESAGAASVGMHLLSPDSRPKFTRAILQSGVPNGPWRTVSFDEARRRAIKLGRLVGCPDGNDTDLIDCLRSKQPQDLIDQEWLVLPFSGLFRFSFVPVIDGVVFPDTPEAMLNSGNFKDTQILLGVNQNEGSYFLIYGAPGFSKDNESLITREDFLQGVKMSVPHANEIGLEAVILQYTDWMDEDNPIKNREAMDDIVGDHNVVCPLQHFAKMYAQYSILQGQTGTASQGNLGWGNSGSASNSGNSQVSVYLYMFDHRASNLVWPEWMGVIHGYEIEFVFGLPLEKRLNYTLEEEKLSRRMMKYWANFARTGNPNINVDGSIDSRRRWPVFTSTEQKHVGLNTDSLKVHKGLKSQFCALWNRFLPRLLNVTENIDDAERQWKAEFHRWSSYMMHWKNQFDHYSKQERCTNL
# Excerpt: as §1
# [3] = mean ± SD, n = 3, read-out: IC50 (µM) BChE
# [4] = mean ± SD, n = 3, read-out: IC50 (µM) AChE
# [5] = N = 3, unit not given (µg/mL scale), read-out: BChE IC50, Tukey HSD homogeneous subsets (group mean) (converted)
# [6] = average of three reads, read-out: BChE IC50 (µM) Average
# [7] = average of three reads, read-out: BChE IC50 (µg/mL) Average (converted)
# [8] = first read, read-out: BChE IC50 (µM) First read
# [9] = first read, read-out: BChE IC50 (µg/mL) First read (converted)
# [10] = second read, read-out: BChE IC50 (µM) Second read
# [11] = second read, read-out: BChE IC50 (µg/mL) Second read (converted)
# [12] = third read, read-out: BChE IC50 (µM) Third read
# [13] = third read, read-out: BChE IC50 (µg/mL) Third read (converted)
# [14] = average of three reads, read-out: AChE IC50 (µM) Average
# [15] = average of three reads, read-out: AChE IC50 (µg/mL) Average (converted)
# [16] = first read, read-out: AChE IC50 (µM) First read
# [17] = second read, read-out: AChE IC50 (µM) Second read
# [18] = single read, unit not printed at place (µg/mL), read-out: AChE IC50 from regression on raw-data page (converted)
# [19] = third read, read-out: AChE IC50 (µM) Third read
# [20] = second read, read-out: AChE IC50 (µg/mL) Second read (converted)
# [21] = third read, read-out: AChE IC50 (µg/mL) Third read (converted)
# [22] = first read, read-out: AChE IC50 (µg/mL) First read (converted)
Compound,"IC50 [1, 3]","IC50 [2, 4]","IC50 [1, 5]","IC50 [1, 6]","IC50 [1, 7]",BChE % inhibition ([1]; conc 50 (µg/mL)),BChE % inhibition ([1]; conc 100 (µg/mL)),"IC50 [1, 8]","IC50 [1, 9]","IC50 [1, 10]","IC50 [1, 11]","IC50 [1, 12]","IC50 [2, 14]","IC50 [2, 15]","AChE % inhibition ([2]; conc 100 (µg/mL), single read)","IC50 [2, 16]","IC50 [2, 17]","IC50 [2, 19]","IC50 [2, 20]","IC50 [2, 21]",also measured
"c1ccn2cc(C34CC5CC(CC(C5)C3)C4)nc2c1 [Compound 2a, 2-(adamantan-1-yl)imidazo[1,2-a]pyridine]",> 2000 µM,> 2000 µM,–,–,–,–,–,–,–,–,–,–,–,–,–,–,–,–,–,–,–
"Cc1cccn2cc(C34CC5CC(CC(C5)C3)C4)nc12.O [Compound 2b, 2-(adamantan-1-yl)-8-methylimidazo[1,2-a]pyridine hydrate]",706 ± 37 µM,657 ± 60 µM,663 µM,706 µM,660 µM,21.17% and 17.3469% and 18.49%,28.06% and 27.68% and 30.36%,681 µM,637 µM,748 µM,700 µM,689 µM,657 µM,614 µM,27.71% and 37.97% and 34.60%,721 µM,646 µM,603 µM,–,–,"BChE % inhibition ([1]; conc 200 (µg/mL)): 49.87% and 45.66% and 43.75%; BChE % inhibition ([1]; conc 300 (µg/mL)): 64.41% and 61.35% and 67.86%; BChE % inhibition ([1]; conc 400 (µg/mL)): 72.45% and 75.51%; BChE % inhibition ([1]; conc 500 (µg/mL)): 80.48% and 74.74% and 73.60%; BChE % inhibition ([1]; conc 600 (µg/mL)): 81.63% and 77.81%; BChE % inhibition ([1]; conc 700 (µg/mL)): 82.40% and 85.08% and 88.14%; IC50 [1, 13]: 644 µM; IC50 ([2]; N = 3, unit not printed (µg/mL scale), read-out: AChE IC50, Tukey HSD homogeneous subsets (group mean) (converted)): 614 µM; AChE % inhibition ([2]; conc 50 (µg/mL), single read): 23.63% and 19.6906% and 32.91%; AChE % inhibition ([2]; conc 150 (µg/mL), single read): 38.54% and 49.65% and 47.82%; AChE % inhibition ([2]; conc 200 (µg/mL), single read): 52.60% and 54.71% and 61.74%; AChE % inhibition ([2]; conc 250 (µg/mL), single read): 60.34% and 65.68% and 64.70%; AChE % inhibition ([2]; conc 300 (µg/mL), single read): 75.67% and 76.23% and 73.56%; IC50 [2, 18]: 674 µM and 605 µM and 564 µM"
"Cc1ccn2cc(C34CC5CC(CC(C5)C3)C4)nc2c1.O [Compound 2c, 2-(adamantan-1-yl)-7-methylimidazo[1,2-a]pyridine hydrate]",> 2000 µM,270 ± 21 µM,–,–,–,–,–,–,–,–,–,–,270 µM,252 µM,56.96% and 48.25% and 49.14%,293 µM,267 µM,250 µM,249 µM,234 µM,"AChE % inhibition ([2]; conc 25 (µg/mL), single read): 20.55% and 27.0778% and 32.32%; AChE % inhibition ([2]; conc 50 (µg/mL), single read): 41.33% and 47.36% and 42.61%; AChE % inhibition ([2]; conc 150 (µg/mL), single read): 68.34% and 71.41% and 72.20%; AChE % inhibition ([2]; conc 200 (µg/mL), single read): 71.21% and 69.72% and 76.25%; AChE % inhibition ([2]; conc 250 (µg/mL), single read): 76.15% and 78.73% and 78.33%; IC50 [2, 18]: 274 µM"
"Cc1ccc2nc(C34CC5CC(CC(C5)C3)C4)cn2c1 [Compound 2d, 2-(adamantan-1-yl)-6-methylimidazo[1,2-a]pyridine]",> 2000 µM,> 2000 µM,–,–,–,–,–,–,–,–,–,–,–,–,–,–,–,–,–,–,–
"Clc1ccn2cc(C34CC5CC(CC(C5)C3)C4)nc2c1 [Compound 2e, 2-(adamantan-1-yl)-7-chloroimidazo[1,2-a]pyridine hydrate]",> 2000 µM,> 2000 µM,–,–,–,–,–,–,–,–,–,–,–,–,–,–,–,–,–,–,–
"c1ccc(-c2ccc(-c3cn4ccccc4n3)cc2)cc1 [Compound 2f, 2-([1,1′-biphenyl]-4-yl)imidazo[1,2-a]pyridine]",> 2000 µM,208 ± 17 µM,–,–,–,–,–,–,–,–,–,–,208 µM,208 µM,–,228 µM,196 µM,200 µM,196 µM,200 µM,"AChE % inhibition ([2]; conc 30 (µg/mL), single read): -1.6523% and -0.07%; AChE % inhibition ([2]; conc 40 (µg/mL), single read): 19.47% and 31.90% and 23.42%; AChE % inhibition ([2]; conc 60 (µg/mL), single read): 46.62% and 65.66% and 72.27%; AChE % inhibition ([2]; conc 70 (µg/mL), single read): 57.54% and 72.63% and 80.68%; AChE % inhibition ([2]; conc 80 (µg/mL), single read): 86.28% and 82.61% and 80.17%; IC50 [2, 22]: 228 µM"
"Cc1cccn2cc(-c3ccc(-c4ccccc4)cc3)nc12 [Compound 2g, 2-([1,1′-biphenyl]-4-yl)-8-methylimidazo[1,2-a]pyridine]",315 ± 6 µM,288 ± 48 µM,315 µM,315 µM,315 µM,–,61.12% and 73.89% and 66.92%,311 µM,310 µM,322 µM,322 µM,312 µM,288 µM,288 µM,66.67% and 62.62% and 65.90%,343 µM,264 µM,258 µM,263 µM,258 µM,"BChE % inhibition ([1]; conc 60 (µg/mL)): 7.74% and 0.19% and 6.00%; BChE % inhibition ([1]; conc 80 (µg/mL)): 35.59% and 45.45% and 37.33%; BChE % inhibition ([1]; conc 90 (µg/mL)): 48.36% and 35.01% and 51.84%; BChE % inhibition ([1]; conc 110 (µg/mL)): 84.33% and 65.76% and 66.92%; BChE % inhibition ([1]; conc 120 (µg/mL)): 106.96% and 76.79% and 121.47%; IC50 [1, 13]: 311 µM; AChE % inhibition ([2]; conc 150 (µg/mL), single read): 81.50% and 87.67% and 85.81%; AChE % inhibition ([2]; conc 200 (µg/mL), single read): 83.04% and 90.94% and 100.39%; AChE % inhibition ([2]; conc 250 (µg/mL), single read): 106.74% and 92.10% and 107.32%; AChE % inhibition ([2]; conc 300 (µg/mL), single read): 140.85% and 130.64% and 128.52%; IC50 [2, 22]: 343 µM"
"Cc1ccc2nc(-c3ccc(-c4ccccc4)cc3)cn2c1 [Compound 2h, 2-([1,1′-biphenyl]-4-yl)-6-methylimidazo[1,2-a]pyridine]",496 ± 27 µM,79 ± 10 µM,484 µM,496 µM,496 µM,28.12% and 20.13% and 20.63%,19.13% and 27.12% and 17.64%,485 µM,484 µM,477 µM,476 µM,528 µM,79.2 µM,79.1 µM,99.77% and 84.22% and 106.56%,83.8 µM,86.3 µM,67.4 µM,86.2 µM,67.3 µM,"BChE % inhibition ([1]; conc 150 (µg/mL)): 48.09% and 45.09% and 49.08%; BChE % inhibition ([1]; conc 200 (µg/mL)): 83.03% and 81.03% and 75.54%; BChE % inhibition ([1]; conc 250 (µg/mL)): 102.50% and 115.97% and 86.02%; IC50 [1, 13]: 527 µM; AChE % inhibition ([2]; conc 25 (µg/mL), single read): 58.20% and 76.39% and 68.79%; AChE % inhibition ([2]; conc 50 (µg/mL), single read): 92.28% and 79.96% and 93.21%; AChE % inhibition ([2]; conc 75 (µg/mL), single read): 92.40% and 88.83% and 96.55%; IC50 [2, 22]: 83.7 µM"
"Clc1cccn2cc(-c3ccc(-c4ccccc4)cc3)nc12 [Compound 2i, 2-([1,1′-biphenyl]-4-yl)-8-chloroimidazo[1,2-a]pyridine]",> 2000 µM,253 ± 25 µM,–,–,–,–,–,–,–,–,–,–,253 µM,253 µM,49.40% and 76.34% and 66.48%,269 µM,225 µM,266 µM,224 µM,265 µM,"AChE % inhibition ([2]; conc 50 (µg/mL), single read): 10.30% and 14.24% and 6.35%; AChE % inhibition ([2]; conc 75 (µg/mL), single read): 37.90% and 58.60% and 35.60%; AChE % inhibition ([2]; conc 125 (µg/mL), single read): 81.60% and 94.74% and 74.70%; AChE % inhibition ([2]; conc 150 (µg/mL), single read): 92.44% and 89.16% and 84.56%; AChE % inhibition ([2]; conc 200 (µg/mL), single read): 97.37% and 103.61% and 101.97%; IC50 [2, 22]: 268 µM"
"Clc1ccc(-c2cn3ccccc3n2)cc1Cl [Compound 2j, 2-(3,4-dichlorophenyl)imidazo[1,2-a]pyridine]",–,> 2000 µM,75.6 µM,–,–,63.01% and 66.76% and 69.65%,91.04% and 87.86% and 90.17%,–,–,–,–,–,–,–,–,–,–,–,–,–,BChE % inhibition ([1]; conc 12.5 (µg/mL)): 27.75% and 48.55% and 34.78%; BChE % inhibition ([1]; conc 25 (µg/mL)): 50.87% and 55.49% and 62.14%
"Cc1cccn2cc(-c3ccc(Cl)c(Cl)c3)nc12 [Compound 2k, 2-(3,4-dichlorophenyl)-8-methylimidazo[1,2-a]pyridine]",191 ± 29 µM,> 2000 µM,197 µM,191 µM,191 µM,44.12% and 38.16% and 45.75%,66.91% and 74.50%,225 µM,224 µM,177 µM,176 µM,172 µM,–,–,–,–,–,–,–,–,"BChE % inhibition ([1]; conc 150 (µg/mL)): 80.47% and 68.54% and 70.16%; BChE % inhibition ([1]; conc 200 (µg/mL)): 146.65% and 115.19%; IC50 [1, 13]: 171 µM"
"COc1ccc(-c2cn3ccccc3n2)cc1 [Compound 2l, 2-(4-methoxyphenyl)imidazo[1,2-a]pyridine]",> 2000 µM,> 2000 µM,–,–,–,–,–,–,–,–,–,–,–,–,–,–,–,–,–,–,–
"COc1ccc(-c2cn3cccc(C)c3n2)cc1 [Compound 2m, 2-(4-methoxyphenyl)-8-methylimidazo[1,2-a]pyridine]",> 2000 µM,> 2000 µM,–,–,–,–,–,–,–,–,–,–,–,–,–,–,–,–,–,–,–
